Consider three molecules from patent publication US20140162958A1, “Copolymer-1 Composition and Methods of Use” (priority 2012, published 2014).

Data set [1] deals with 5-hydroxytryptamine (5-HT) induced plasma extravasation. To be noted: concentration of about 0.083%; cited from earlier work.
The format of data set [2] is in vivo, patient (the inventor). Here is the method:
A series of compositions comprising an amount of copolymer-1 and a local anesthetic were generated in order to provide for a formulation that was substantially free of Site Reactions upon injection. Briefly, the methodology involved titrating amounts of an injectable local anesthetic (bupivacaine, 0.5%) to a solution of copolymer-1 (provided as COPAXONE®, 20 mg injectable syringe). […] This percentage of local anesthetic is well below clinical dosages typically used for skin infiltration for pain control (e.g. 0.25%). The composition was stable for over 30 days both at room temperature and when refrigerated.
The composition described in Example 1 (0.2 mL of bupivacaine (at 0.5%) added to 1.0 mL COPAXONE®, 20 mg injectable syringe) was used in this Example.
The inventor, Dr. Robbins, an anesthesiologist and pain management specialist familiar with the use of local anesthetics in procedures such as spinal epidurals, has been diagnosed with multiple sclerosis and has been prescribed COPAXONE® in order to treat the disease. […] Oral pain management (Motrin) and immediate icing of the injection site were ineffective in alleviating the pain associated with the COPAXONE® injection. […]

Data set [3] deals with experimental autoimmune encephalomyelitis (EAE). To be noted: in vivo; cited from earlier work.
Data set [4] has as its system exacerbating-remitting form of multiple sclerosis. To be noted: daily injections; cited from earlier work.
The next data set has as its system RRMS patients. To be noted: 40 mg/mL subcutaneous injection three times a week; cited from earlier work.

`CCCCN1CCCCC1C(=O)Nc1c(C)cccc1C` (stereo not drawn) [bupivacaine]: in data set [1], the “inhibition of 5-HT induced plasma extravasation” value is reported as “greater than 95%”.

Regarding `CC(C)Cc1ccc(C(C)C(=O)O)cc1` (stereo not drawn) [Motrin], the “alleviation of the pain associated with the COPAXONE injection” value in data set [2] (oral pain management) is “ineffective”.

Regarding copolymer-1, the “pain / Site Reactions associated with the treatment” value in data set [2] (human, in vivo) was “skin wheals, immediate pain upon injection and continuing post-injection pain”. In data set [3], the “suppression of EAE” value is “suppress EAE”. Also, the “exacerbations and increases in disability status versus control patients” value in data set [4] was “fewer exacerbations and smaller increases in their disability status”. The “primary endpoint (reducing the annualized relapse rate relative to placebo)” value in the data set on RRMS patients is “met its primary endpoint”.
